In ChEMBL document CHEMBL1201862, “PubChem BioAssay data set” (2004):
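Grown in 96-well plates, cells were treated for 48 hours with each compound at five concentrations. Insufficient inhibition: endpoint recorded as highest concentration tested. GI50 marks 50% less growth.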 Activity calls are given as the source filed them. No stated cut-off is given here; in the data, active = GI50 up to about 1.1 µM and inactive = higher.

Experiments:
Test in all cases: growth of human tumour cells (NCI), 48 h
[1] = tested on: 786-0
[2] = tested on: A549
[3] = tested on: ACHN
[4] = tested on: BT-549
[5] = tested on: CCRF-CEM
[6] = tested on: COLO 205
[7] = tested on: DU-145
[8] = tested on: HCC 2998
[9] = tested on: HCT-15
[10] = tested on: HL-60
[11] = tested on: HOP-92
[12] = tested on: HT-29
[13] = tested on: Hs-578T
[14] = tested on: IGROV-1
[15] = tested on: K562
[16] = tested on: KM12
[17] = tested on: LOX IMVI
[18] = tested on: M14
[19] = tested on: MCF7
[20] = tested on: MDA-MB-231
[21] = tested on: MDA-MB-435
[22] = tested on: MDA-N
[23] = tested on: MOLT-4
[24] = tested on: Malme-3M
[25] = tested on: NCI-H226
[26] = tested on: NCI-H23
[27] = tested on: NCI-H460
[28] = tested on: NCI-H522
[29] = tested on: OVCAR-3
[30] = tested on: OVCAR-4
[31] = tested on: OVCAR-5
[32] = tested on: OVCAR-8
[33] = tested on: RPMI-8226
[34] = tested on: RXF 393
[35] = tested on: SF-268
[36] = tested on: SF-295
[37] = tested on: SK-MEL-28
[38] = tested on: SK-MEL-2
[39] = tested on: SK-MEL-5
[40] = tested on: SN12C
[41] = tested on: SNB-19
[42] = tested on: SNB-75
[43] = tested on: SR
[44] = tested on: SW-620
[45] = tested on: T47D
[46] = tested on: TK-10
[47] = tested on: U-251
[48] = tested on: UACC-257
[49] = tested on: UACC-62
[50] = tested on: UO-31
[51] = tested on: A498
[52] = tested on: HOP-62
[53] = tested on: EKVX
[54] = tested on: HCT-116
[55] = tested on: NCI/ADR-RES
[56] = tested on: PC-3
[57] = tested on: SF-539
[58] = tested on: SK-OV-3

CN1CCN(C(=S)N(C(=O)c2cccs2)c2ccccc2)CC1
GI50 [1]: > 100 µM (inactive)
GI50 [2]: > 100 µM (inactive)
GI50 [3]: > 100 µM (inactive)
GI50 [4]: > 100 µM (inactive)
GI50 [5]: > 100 µM (inactive)
GI50 [6]: > 100 µM (inactive)
GI50 [7]: > 100 µM (inactive)
GI50 [8]: > 100 µM (inactive)
GI50 [9]: > 100 µM
GI50 [10]: > 100 µM (inactive)
GI50 [11]: > 100 µM (inactive)
GI50 [12]: > 100 µM (inactive)
GI50 [13]: > 100 µM (inactive)
GI50 [14]: > 100 µM (inactive)
GI50 [15]: > 100 µM (inactive)
GI50 [16]: > 100 µM (inactive)
GI50 [17]: > 100 µM (inactive)
GI50 [18]: > 100 µM (inactive)
GI50 [19]: > 100 µM (inactive)
GI50 [20]: > 100 µM (inactive)
GI50 [21]: > 100 µM (inactive)
GI50 [22]: > 100 µM (inactive)
GI50 [23]: > 100 µM (inactive)
GI50 [24]: > 100 µM (inactive)
GI50 [25]: > 100 µM (inactive)
GI50 [26]: > 100 µM (inactive)
GI50 [27]: > 100 µM (inactive)
GI50 [28]: > 100 µM (inactive)
GI50 [29]: > 100 µM (inactive)
GI50 [30]: > 100 µM (inactive)
GI50 [31]: 94.6 µM (inactive)
GI50 [32]: > 100 µM (inactive)
GI50 [33]: > 100 µM (inactive)
GI50 [34]: > 100 µM (inactive)
GI50 [35]: > 100 µM (inactive)
GI50 [36]: > 10 µM (inactive)
GI50 [37]: > 100 µM (inactive)
GI50 [38]: > 100 µM (inactive)
GI50 [39]: > 100 µM (inactive)
GI50 [40]: > 100 µM (inactive)
GI50 [41]: > 100 µM (inactive)
GI50 [42]: 56 µM (inactive)
GI50 [43]: > 100 µM (inactive)
GI50 [44]: > 100 µM (inactive)
GI50 [45]: > 100 µM (inactive)
GI50 [46]: > 100 µM (inactive)
GI50 [47]: > 100 µM (inactive)
GI50 [48]: > 100 µM (inactive)
GI50 [49]: > 100 µM (inactive)
GI50 [50]: > 100 µM (inactive)

CN(C)c1ccc(/C=C2\N=C(N/N=C/c3ccccc3O)NC2=O)cc1
GI50 [51]: 25.1 µM (inactive)
GI50 [4]: 44.7 µM (inactive)
GI50 [6]: 31.3 µM (inactive)
GI50 [7]: 32.3 µM (inactive)
GI50 [8]: 36.9 µM (inactive)
GI50 [52]: 22.5 µM (inactive)
GI50 [11]: 24 µM (inactive)
GI50 [12]: 34.3 µM (inactive)
GI50 [13]: 68.9 µM (inactive)
GI50 [21]: 32.8 µM (inactive)
GI50 [22]: 39.1 µM (inactive)
GI50 [25]: 20.5 µM (inactive)
GI50 [31]: 49.9 µM (inactive)
GI50 [33]: 38.6 µM (inactive)
GI50 [34]: 23.9 µM (inactive)
GI50 [35]: 34.4 µM (inactive)
GI50 [37]: 25.1 µM (inactive)
GI50 [40]: 36.7 µM (inactive)
GI50 [41]: 41.9 µM (inactive)
GI50 [42]: 31.2 µM (inactive)
GI50 [46]: 25.6 µM (inactive)

C#CCOCC12C=CC(O1)C1C(=O)N(C)C(=O)C12 (stereo not drawn)
GI50 [1]: > 100 µM (inactive)
GI50 [51]: > 100 µM (inactive)
GI50 [2]: > 100 µM (inactive)
GI50 [3]: > 100 µM (inactive)
GI50 [4]: > 100 µM (inactive)
GI50 [5]: > 100 µM (inactive)
GI50 [6]: > 100 µM (inactive)
GI50 [7]: > 100 µM (inactive)
GI50 [53]: > 100 µM (inactive)
GI50 [8]: > 100 µM (inactive)
GI50 [54]: > 100 µM (inactive)
GI50 [9]: > 100 µM
GI50 [10]: > 100 µM (inactive)
GI50 [52]: > 100 µM (inactive)
GI50 [12]: > 100 µM (inactive)
GI50 [14]: > 100 µM (inactive)
GI50 [16]: > 100 µM (inactive)
GI50 [17]: > 100 µM (inactive)
GI50 [18]: > 100 µM (inactive)
GI50 [19]: > 100 µM (inactive)
GI50 [20]: > 100 µM (inactive)
GI50 [21]: > 100 µM (inactive)
GI50 [22]: > 100 µM (inactive)
GI50 [23]: > 100 µM (inactive)
GI50 [24]: > 100 µM (inactive)
GI50 [25]: > 100 µM (inactive)
GI50 [26]: > 100 µM (inactive)
GI50 [27]: > 100 µM (inactive)
GI50 [55]: > 100 µM (inactive)
GI50 [29]: > 100 µM (inactive)
GI50 [30]: > 100 µM (inactive)
GI50 [31]: > 100 µM (inactive)
GI50 [32]: > 100 µM (inactive)
GI50 [56]: > 100 µM (inactive)
GI50 [33]: > 100 µM (inactive)
GI50 [34]: > 100 µM (inactive)
GI50 [35]: > 100 µM (inactive)
GI50 [36]: > 100 µM (inactive)
GI50 [57]: > 100 µM (inactive)
GI50 [37]: > 100 µM (inactive)
GI50 [39]: > 100 µM (inactive)
GI50 [58]: > 100 µM (inactive)
GI50 [40]: > 100 µM (inactive)
GI50 [41]: > 100 µM (inactive)
GI50 [42]: > 100 µM (inactive)
GI50 [43]: > 100 µM (inactive)
GI50 [44]: > 100 µM (inactive)
GI50 [45]: > 100 µM (inactive)
GI50 [46]: > 100 µM (inactive)
GI50 [47]: > 100 µM (inactive)
GI50 [49]: > 100 µM (inactive)
GI50 [50]: > 100 µM (inactive)
